Results taken from US20240122945A1, “USE OF NEUROACTIVE STEROIDS FOR TREATMENT OF SEXUAL DYSFUNCTION” (Sage Therapeutics, Inc., priority 2021, published 2024).

Tested on: Patients With Major Depressive Disorder
Test: Phase 3 MOUNTAIN study: sexual functioning by Changes in Sexual Functioning Questionnaire-14 (CSFQ-14), post-hoc analysis
Assay type: in vivo, human
Details: for Odds Ratio for Sexual Dysfunction (Compound (1) relative to placebo): GEE model
Experimental: Results from the multicenter, double-blind, randomized, placebo-controlled Phase 3 MOUNTAIN trial (NCT03672175) evaluating the efficacy, safety, and tolerability of 14-day treatment with 20 mg or 30 mg of Compound (1) compared with placebo (PBO) have been previously presented (Clayton, A. H. Presented at SOBP 2020 Virtual Meeting).
This analysis assessed the effect of 30 mg of Compound (1) treatment compared with PBO on sexual function, as measured by the Changes in Sexual Functioning Questionnaire-14 (CSFQ-14), in the MOUNTAIN trial.
Adult outpatients (18-65 years; n=581) with MDD (HAMD-17 total score≥22 and MADRS total score≥32) were randomized 1:1:1 to Compound (1) 20 mg (data not shown), Compound (1) 30 mg, or PBO, once-nightly for 2 weeks, with follow-up through Day 42 (see FIG. 1 for Study Design). Standard of care antidepressants that had been taken at the same dose for ≥60 days prior to Day 1 of the trial were permitted. Exclusion criteria included attempted suicide associated with the current depressive episode; treatment-resistant depression, and medical history of bipolar disorder, schizophrenia, and/or schizoaffective disorder.
Exploratory, post-hoc analyses included evaluation of sexual functioning using the 14-item; self-report CSFQ-14 at baseline, Day 15, 28, and 42.
Male and female sexual functioning was evaluated as an exploratory endpoint with the validated, 14-item, patient-reported CSFQ-14 scores at baseline, Day 15, Day 28, and Day 42. CSFQ-14 also has 5 sub-scales that measure pleasure, desire/frequency, desire/interest, arousal/excitement, and orgasm/completion, which were also evaluated. Sexual dysfunction was defined as a CSFQ-14TS of ≤41 for females and ≤47 for males. Mixed model for repeated measure and generalized estimating equation were used for analysis on patients with a baseline HAMD-17 total score≥24 (n=323).
The model used was a generalized estimating equation (GEE) for binary response model, with factors for treatment (Compound (1) 30 mg or placebo), baseline CSFQ-14 total score, antidepressant use at baseline (Yes or No), assessment time point, and time point-by-treatment interaction with exchangeable covariance structure.
Odds ratio is the estimate of the odds of having CSFQ sexual dysfunction for subjects treated with Compound (1) relative to that for subjects treated with placebo.

With `C[C@@]1(O)CC[C@H]2[C@H](CC[C@@H]3[C@@H]2CC[C@]2(C)[C@@H](C(=O)Cn4cc(C#N)cn4)CC[C@@H]32)C1` [Compound (1), 1-(2-((3R,5R,8R,9R,10S,13S,14S,17S)-3-hydroxy-3,13-dimethylhexadecahydro-1H-cyclopenta[a]phenanthren-17-yl)-2-oxoethyl)-1H-pyrazole-4-carbonitrile] the “difference vs PBO in percentage of male patients with sexual dysfunction across individual CSFQ-14 subscales” value (30 mg, Days 15, 28, 42, exception: arousal/excitement at Day 42 (FIG. 5)) was “no significant differences”, the “difference vs PBO in percentage of female patients with sexual dysfunction across individual CSFQ-14 subscales” value (30 mg, Days 15, 28, 42, exception: desire/frequency at Day 15 and orgasm/completion at Day 28 (FIG. 4)) was “no significant differences” and the “difference vs PBO in percentage of patients with sexual dysfunction in the individual CSFQ-14 subscales” value (30 mg, all patients) was “no significant differences”. The treatment-emergent sexual dysfunction (30 mg, overall conclusion) was “not associated with treatment-emergent sexual dysfunction”, the “impairment of sexual function compared to placebo during the trial” value (30 mg, through Day 42) was “No impairment of sexual function” and the “Odds Ratio for Sexual Dysfunction (Compound (1) relative to placebo)” value (“Odds Ratio … (Compound (1) relative to placebo)” for short) (Day 15, Men, 30 mg, CSFQ total score<=47 = sexual dysfunction) was 0.72. For the same compound, the “Odds Ratio … (Compound (1) relative to placebo)” value (Day 15, Women, 30 mg, CSFQ total score<=41 = sexual dysfunction) was 1.00, the “Odds Ratio … (Compound (1) relative to placebo)” value (Day 28, Men, 30 mg, CSFQ total score<=47 = sexual dysfunction) was 1.07 and the “Odds Ratio … (Compound (1) relative to placebo)” value (Day 28, Women, 30 mg, CSFQ total score<=41 = sexual dysfunction) was 1.01. For the same compound, the “percentage of all patients with sexual dysfunction as assessed by CSFQ-14TS thresholds” value (Day 42 (181/272), from 82.4% (266/323) at baseline, Compound (1) 30 mg- and PBO-treated patients together) was 66.5%, the “Odds Ratio … (Compound (1) relative to placebo)” value (Day 42, Men, 30 mg, CSFQ total score<=47 = sexual dysfunction) was 0.88 and the “Odds Ratio … (Compound (1) relative to placebo)” value (Day 42, Women, 30 mg, CSFQ total score<=41 = sexual dysfunction) was 0.91.
